{"source": "patent US20240400712A1", "about": "“A PLATFORM TO OBTAIN MONOCLONAL ANTIBODIES DIRECTED AGAINST PROCESSED TUMOR-SPECIFIC ANTIGENS” (MEDITERRANEA THERANOSTIC SRL, priority 2020, published 2024)", "key": {"ADAM10": {"target": "T1, ADAM10 (Mus musculus, UniProt O35598)", "T1 construct": "endogenous in cells; host or cells: MTE 4-14 cells (transformed thymus cells) transfected with Trop-2", "T1 sequence (O35598 215-749)": "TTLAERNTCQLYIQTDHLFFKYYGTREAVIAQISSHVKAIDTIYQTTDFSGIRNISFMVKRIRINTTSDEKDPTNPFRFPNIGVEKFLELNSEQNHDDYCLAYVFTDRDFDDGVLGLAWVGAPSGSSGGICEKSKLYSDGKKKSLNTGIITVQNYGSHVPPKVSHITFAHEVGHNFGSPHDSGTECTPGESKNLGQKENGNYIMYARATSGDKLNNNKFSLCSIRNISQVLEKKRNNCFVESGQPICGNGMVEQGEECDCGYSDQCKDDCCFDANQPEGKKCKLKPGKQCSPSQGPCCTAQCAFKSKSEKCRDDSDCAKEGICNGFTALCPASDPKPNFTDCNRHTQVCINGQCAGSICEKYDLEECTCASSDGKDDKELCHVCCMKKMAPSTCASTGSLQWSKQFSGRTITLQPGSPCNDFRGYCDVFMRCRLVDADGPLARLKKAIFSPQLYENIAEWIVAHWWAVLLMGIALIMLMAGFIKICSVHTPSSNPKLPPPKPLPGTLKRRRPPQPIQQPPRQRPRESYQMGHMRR", "experiment": "Western blot of Trop-2 processing after ADAM10 inhibition or silencing in MTE 4-14/Trop-2 transfectants", "assay_type": "cell-based, murine", "conditions": "for concentration found effective (up to): inhibition of Trop-2 cleavage in cells", "description": "ADAM 10 activity was inhibited in the MTE 4-14/Trop-2 transfectants by treatment with chemical inhibitors or mRNA silencing, and the effect on Trop-2 processing and on Trop-2-dependent cell growth was evaluated.\nA. WB analysis following treatment with the broad-spectrum metalloprotease inhibitor GM6001 or with the specific ADAM10 inhibitor G1254023X (Ludwig, Hundhausen et al. 2005) or ADAM10 siRNA silencing, as indicated. […] T2-p: processed Trop-2; na: native form; pr processed form.\nWestern blotting was performed as described (El Sewedy, Fomaro et al. 1998). Tumors from experimental animals were rapidly frozen upon surgical removal and stored at −80° C. Frozen samples were quickly thawed and homogenized with a Dounce homogenizer. Cleared homogenates of tumors and cultured cell lysates were analyzed by SDS-PAGE and transferred to nitrocellulose filters. Filters were hybridized with anti-human Trop-2 (affinity-purified polyclonal rabbit antiserum) or anti-ADAM10 antibodies.\nCells were treated with ADAM10 inhibitors for 24 hours at the minimum concentration found to be effective in inhibiting Trop-2 cleavage, then assayed as indicated. The GM6001 metalloprotease family inhibitor (Calbiochem) was dissolved in DMSO and used at 6.5-13 μM for 24 hours; up to 50 μM GM6001 were found effective. The G1254023X selective ADAM10 inhibitor, dissolved in DMSO, was kindly provided by Dr. A. Ludwig. Cells received two doses (10 μM) every 24 hours for 48 hours; up to 20 μM G1254023X were found effective. Control cells received vehicle alone.\n(§1) Complementary strategies were utilized for siRNA design. Briefly, Tuschl' criteria were applied, i.e. position in the mRNA, GC content, base composition and flanking sequences (Elbashir, Harborth et al. 2001). Invitrogen (maidesigner.invitrogen.com/maiexpress/) provides a proprietary algorithm that performs a statistical analysis of the target sequence, based on sequence composition, nucleotide content and thermodynamic properties, and compares candidates with validated siRNA sequences. The Whitehead Institute web site (jura.wi.mit.edu/bioc/siRNAext/) combines Tuschl' criteria with predictions of binding energies for both sense and antisense siRNAs and with BLAST filtering of cross-hybridizing sequences (Semizarov, Frost et al. 2003). […] Annealed oligos were subcloned into the pSUPER vector, kindly provided by Dr. R. Bemard (Brummelkamp, Bemards et al. 2002), under the control of the RNA polymerase Ill H1 gene promoter. siRNA expression constructs were transiently transfected MTE 4-14 transfectants, and cell growth was measured. siRNA-targeted transcript levels were quantified by real-time PCR. […]"}, "[1]": {"test_system": "metastatic triple-negative breast cancer (TNBC)", "conditions": "cited from earlier work"}, "MTE 4-14 cells": {"test_system": "MTE 4-14 cells", "experiment": "In vitro cell growth of MTE 4-14 transfectants after siRNA-mediated inhibition", "assay_type": "cell-based, murine", "description": "C. In vitro growth curves of MTE 4-14 cells transfected with the empty vector, wtTrop-2 or R87A-T88A Trop-2 upon ADAM10 (upper graphs, black,), MMP9 (lower graphs, black,) or control (human CD133, gray), siRNA-mediated inhibition. Bars: SEM. The p value for the only significant difference (ANOVA analysis) is indicated. Stars indicate post-hoc Bonferroni's t test p values (*≤0.05, ***≤0.001).\nCell transfectants were seeded at 1.5-3.0×10^3 cells/well in 96-well plates (five replica wells per data point). Cell numbers were quantified by staining with crystal violet (Orsulic, Li et al. 2002).\nCell numbers were normalized against a standard reference curve of two-fold serially diluted cell samples.\nas §1"}}}
{"molecule": "CNC(=O)[C@@H](NC(=O)[C@H](CCCc1ccccc1)[C@H](C)N(O)C=O)C(C)(C)C", "note": "[G1254023X]", "values": [{"measurement": "minimum concentration found to be effective in inhibiting Trop-2 cleavage", "setting": "ADAM10; concentration used on cells, GM6001 for 24 hours, G1254023X two doses every 24 hours for 48 hours", "result": 10, "unit": "µM"}, {"measurement": "concentration found effective (up to)", "setting": "ADAM10", "result": "up to 20 μM"}]}
{"molecule": "CNC(=O)[C@H](Cc1c[nH]c2ccccc12)NC(=O)[C@@H](CC(=O)NO)CC(C)C", "note": "[GM6001]", "values": [{"measurement": "concentration found effective (up to)", "setting": "ADAM10", "result": "up to 50 μM"}]}
{"molecule": "Sacituzumab govitecan-hziy", "values": [{"measurement": "efficacy in patients", "setting": "[1]", "result": "effective in patients with metastatic triple-negative breast cancer (TNBC)"}]}
{"molecule": "siRNAs targeting MMP9: control siRNA targeting murine MMP9 (NM_013599, nt 1780-1798), SEQ ID NO: 59-60 (nucleic acid, listed as Mus musculus) sense: GATCCCCCCGCAGACCAAGAGGGTTTTTCAAGAGAAAACCCTCTTGGTCTGCGGTTTTTGGAAA antisense: AGCTTTTCCAAAAACCGCAGACCAAGAGGGTTTTCTCTTGAAAAACCCTCTTGGTCTGCGGGGG", "values": [{"measurement": "effect on cell proliferation", "setting": "MTE 4-14 cells; control siRNA, MTE 4-14 transfectants", "result": "no effect on cell proliferation"}]}
{"molecule": "ADAM10 siRNA: siRNA targeting murine ADAM10 (NM_007399.3, nt 292-309), SEQ ID NO: 57-58, in pSUPER vector (nucleic acid, listed as Mus musculus) sense: GATCCCCAGACATTATGAAGGATTATTTCAAGAGAATAATCCTTCATAATGTCTTTTTTGGAAA antisense: AGCTTTTCCAAAAAAGACATTATGAAGGATTATTCTCTTGAAATAATCCTTCATAATGTCTGGG", "values": [{"measurement": "ADAM10 band in WB after siRNA treatment", "setting": "ADAM10; MTE 4-14/Trop-2 transfectants", "result": "disappearance of the corresponding band"}, {"measurement": "effect on growth of R87A-T88A or empty vector transfectants", "setting": "MTE 4-14 cells; MTE 4-14 cells transfected with R87A-T88A Trop-2 or empty vector", "result": "no effect"}, {"measurement": "effect on Trop-2 dependent growth in wtTrop-2 transfectants", "setting": "MTE 4-14 cells; MTE 4-14 cells transfected with wtTrop-2, in vitro proliferation", "result": "overrides Trop-2 dependent growth stimulus"}]}
